Reference: patent publication US6355677B1, “Adrenoleukodystrophy treatments and drug screening” (The Johns Hopkins University, priority 1998, dated 2002)
Entries after “also recorded” stand apart in the source; their conditions may differ.

Legend:
[1] = test system: human X-ALD lymphoblastoid cells; assay: VLCFA (C24:0 and C26:0) levels in cultured cells, capillary GC; type: cell-based
Procedure: (§1) Cell lines derived from X-ALD patients and X-ALD mice were grown in MEM (fibroblasts) or RPMI (lymphoblastoid cells) supplemented with fetal calf serum (10%), penicillin (100 U/ml), streptomycin (100 U/ml) and glutamine (2 mM). […] Cells in the second flask were grown without drug for the same length of time and served as controls. The media were changed every 3-4 days.
(§2) For VLCFA measurements, total lipids were extracted, converted to methyl esters, purified by TLC and subjected to capillary GC analysis as described. Duplicate assays were set up independently and were assayed on different days. C24:0 β-oxidation activity of human and mouse fibroblasts and human lymphoblastoid cells was determined by measuring their capacity to degrade [1-^14C]-C24:0 fatty acid (American Radiolabeled Chemicals, St. Louis, Mo.) to water-soluble products as described. Phytanic acid oxidation was measured as described. Cells were incubated with [2,3-^3H]-phytanic acid for 24 hours, and the release of ^3H-H2O to the aqueous medium was determined (activity in pmol/hr per mg protein).

[2] = test system: human X-ALD primary fibroblasts; assay: as above; type: cell-based; conditions: for C24:0 level, Treated / C26:0 Percent Correction / C26:0 level, Treated / C24:0 Percent Correction: X-ALD human primary fibroblasts
Procedure: as §1, §2

[3] = test system: mouse X-ALD primary fibroblasts; assay: as above; type: cell-based; conditions: 5 mM; for C24:0 Percent Correction / C24:0 level, Treated / C26:0 Percent Correction / C26:0 level, Treated: X-ALD mouse primary fibroblasts
Procedure: as §1, §2

ALDP = assay: Semi-quantitative RT-PCR, mouse primary fibroblasts; type: cell-based; conditions: normal fibroblasts, 5 mM, 2 days
Procedure: (§3) Semi-quantitative RT-PCR was done on the mRNA isolated from these cells (FIG. 1). […] In addition, the expression of acyl-CoA oxidase (AOX), the rate-limiting enzyme in VLCFA β-oxidation, was not affected. Although previous studies have reported that ALDR mRNA was not detectable in fibroblasts by either northern or RT-PCR analyses, those RT-PCR studies used about 66 ng of CDNA; we used about 250 ng of cDNA.
(§4) Total RNA from tissue culture cells (10^6-10^7 cells/sample) was isolated using TRizol Reagent™ (Life Technologies), treated with DNase I (100-200 units in 40 mM HC, 10mM NaC, 6 mM MgCl2, pH 7.3), incubated at 37° C. for 30 min, extracted with pheno/chloroform, and precipitated with isopropanol. cDNA was generated using MMLV reverse transcriptase (RT) (Life Technologies). PCR was done in the linear range of amplification (determined for each primerpair-cDNA combination). For each cDNA sample, a ‘cocktail’ was prepared, containing PCR buffer (Promega), 200 µM of each DNTP, 1.5 mM MgCl2, 250 ng cDNA, 0.25 U of Taq polymerase (Promega) and […]. The ‘cocktail’ was divided into separate tubes containing cDNA specific primers.
(§5) The PCR primers used are listed below. In the parentheses, h indicates human and m, mouse; this is followed by the gene name, product size and annealing temperature. For primer sequences, F is forward and R is reverse. (hALD, 249, 64° C.) F: 5′-[…]-3′, R: 5′-[…]-3′; (mALD, 526, 59° C.) F: 5′-[…]-3′, R: 5′-[…]-3′; (hPMP70, 405, 60° C.) F: 5′-[…]-3′, R: 5′-[…]-3′; (mPMP70, 405, 60° C.) F: 5′-TTr[…]-3′, R: 5′-[…]-3′; (hALDR, 312, 56° C.) F: 5-[…]-3′, R: 5′-[…]-3′; (mALDR, 711, 57° C.) F: 5′-[…]-3′, R: 5′-[…]-3′; (hPMP69, 319, 60° C.) F: 5′-[…]-3′, R: 5-[…]-3′; (hAOX, 405, 60° C.) F: 5′-[…]-3′, R: 5′[…]-3′; (mAOX, 247, 60° C.) F: 5′-[…]r[…]-3′, R: 5′-[…]-3′; (hPPARα, 347, 60° C.) F: 5-[…]r[…]rCC-3′, R: 5′-[…]-3′; (mFPPARa, 268, 60° C.) F: 5′-GATTr[…]-TGAGG-3, R: 5′-[…]-3′; (hPex11α 658, 55° C.) F: 5-[…]-3′, R: 5′-[…]-3′; (mpex11α, 720, 55° C.) F: 5′-[…]r[…]-3′, R: 5′-[…]-3′; (β-Actin, 460, 62° C.) F:5′-[…]-3′, R: 5′-[…]-3, (glyceraldehyde 3-phosphate dehydrogenase (GAPDH), 528, 62° C.) F: 5′-[…]-3, R: 5′-[…]-3′. β-Actin and GAPDH primers were used for both human and mouse analyses.

ALDR mRNA = assay: as above; type: cell-based; conditions: normal and X-ALD fibroblasts, 5 mM, 2 days, relative to GAPDH
Procedure: as §3, §4, §5

PMP70 = assay: as above; type: cell-based; conditions: X-ALD or normal fibroblasts, 5 mM, 2 days
Procedure: as §3, §4, §5

acyl-CoA oxidase (AOX) = assay: as above; type: cell-based; conditions: 5 mM, 2 days
Procedure: as §3, §4, §5

[4] = test system: human primary fibroblasts; assay: Phytanic acid oxidation ([2,3-3H]-phytanic acid); type: cell-based; conditions: 5 mM, 10 days
Procedure: Phytanic acid oxidation occurs exclusively in the peroxisomal matrix and can therefore serve as a marker for peroxisomal function. […] SCP2 is a 15-kDa protein located exclusively in the peroxisomal matrix.
as §2

ΔF508-CFTR = conditions: nasal epithelia cells, homozygous or heterozygous ΔF508-CFTR; cited from earlier work
[5] = X-ALD human lymphoblastoid cells, 5 mM, exposure 6 days
[6] = X-ALD human lymphoblastoid cells, 5 mM, exposure 10 days
[7] = between 1 mM and 5 mM, data not shown

In the case of O=C(O)CCCc1ccccc1 [4-PBA, 4-Phenyl butyrate], the “Time of treatment until C24:0 and C26:0 levels were normalized” value ([1]; 5 mM, human lymphoblastoid cells) is reported as no more than 10 days, the “C24:0 level, Treated” value [1, 5] is reported as 0.65 ± 0.17% of total fatty acids and the “C26:0 Percent Correction” value [1, 5] is reported as 71%. The “C26:0 level, Treated” value [1, 5] was 0.11 ± 0.05% of total fatty acids, the “C24:0 Percent Correction” value [1, 6] was 161% and the “C24:0 level, Treated” value [1, 6] was 0.54 ± 0.16% of total fatty acids. For the same compound, the “C26:0 Percent Correction” value [1, 6] was 90%, the “C26:0 level, Treated” value [1, 6] was 0.09 ± 0.05% of total fatty acids and the “Effect on VLCFA levels over concentration range” value [1, 7] was “dose-dependent decrease”. The “Time of treatment until C24:0 levels were normalized” value ([2]; 5 mM, human X-ALD fibroblasts) was no more than 10 days, the “C24:0 level, Treated” value ([2]; 5 mM, exposure 1 day) was 2.65 ± 0.36% of total fatty acids and the “C26:0 Percent Correction” value ([2]; 5 mM, exposure 1 day) was 2%. For the same compound, the “C26:0 level, Treated” value ([2]; 5 mM, exposure 1 day) was 0.51 ± 0.14% of total fatty acids, the “C24:0 Percent Correction” value ([2]; 5 mM, exposure 1 day, untreated X-ALD 0%, normal 100%) was −1% and the “C24:0 Percent Correction” value ([2]; 5 mM, exposure 6 days) was 81%. For the same compound, the “C24:0 level, Treated” value ([2]; 5 mM, exposure 6 days) was 1.82 ± 0.28% of total fatty acids, the “C26:0 Percent Correction” value ([2]; 5 mM, exposure 6 days) was 26% and the “C26:0 level, Treated” value ([2]; 5 mM, exposure 6 days) was 0.41 ± 0.04% of total fatty acids. The “C24:0 Percent Correction” value ([2]; 5 mM, exposure 12 days) was 155%, the “C24:0 level, Treated” value ([2]; 5 mM, exposure 12 days) was 1.43 ± 0.34% of total fatty acids and the “C26:0 Percent Correction” value ([2]; 5 mM, exposure 12 days) was 33%. For the same compound, the “C26:0 level, Treated” value ([2]; 5 mM, exposure 12 days) was 0.31 ± 0.06% of total fatty acids, the “C24:0 Percent Correction” value ([2]; 5 mM, exposure 16 days) was 96% and the “C24:0 level, Treated” value ([2]; 5 mM, exposure 16 days) was 1.69 ± 0.27% of total fatty acids. The “C26:0 Percent Correction” value ([2]; 5 mM, exposure 16 days) was 38%, the “C26:0 level, Treated” value ([2]; 5 mM, exposure 16 days) was 0.28 ± 0.03% of total fatty acids and the “C24:0 Percent Correction” value ([2]; 5 mM, exposure 22 days) was 128%. The “C24:0 level, Treated” value ([2]; 5 mM, exposure 22 days) was 1.52 ± 0.14% of total fatty acids, the “C26:0 Percent Correction” value ([2]; 5 mM, exposure 22 days) was 47% and the “C26:0 level, Treated” value ([2]; 5 mM, exposure 22 days) was 0.27 ± 0.04% of total fatty acids. For the same compound, the “Effect on VLCFA levels over concentration range” value [2, 7] was “dose-dependent decrease”, the “Time of treatment until C24:0 and C26:0 levels were normalized” value ([3]; mouse fibroblasts) was no more than 10 days and the “C24:0 Percent Correction” value ([3]; exposure 5 days) was 115%. For the same compound, the “C24:0 level, Treated” value ([3]; exposure 5 days) was 1.10 ± 0.15% of total fatty acids, the “C26:0 Percent Correction” value ([3]; exposure 5 days) was 92% and the “C26:0 level, Treated” value ([3]; exposure 5 days) was 0.07 ± 0.03% of total fatty acids. For the same compound, the “C24:0 Percent Correction” value ([3]; exposure 9 days) was 152%, the “C24:0 level, Treated” value ([3]; exposure 9 days) was 0.87 ± 0.04% of total fatty acids and the “C26:0 Percent Correction” value ([3]; exposure 9 days) was 100%. The “C26:0 level, Treated” value ([3]; exposure 9 days) was 0.05 ± 0.01% of total fatty acids, the ALDP expression level (ALDP) was “little, if any, effect” and the “ALDR mRNA level” value (ALDR mRNA) was “substantially increased; also recorded: substantial increase”. The PMP70 expression level (PMP70) was “little, if any, effect”, the AOX expression (acyl-CoA oxidase (AOX)) was “unchanged; also recorded: not affected” and the “Increase in phytanic acid oxidation” value ([4]; X-ALD human primary fibroblasts) was “twofold”. The “Increase in phytanic acid oxidation” value ([4]; normal human primary fibroblasts) was “twofold” and the “Effect on ΔF508-CFTR” value (ΔF508-CFTR) was “rescue of ΔF508-CFTR from premature degradation”.
